Consider 18 compounds from the supplement of paper PMC11061612.

Common to all, as to experiment: Bliss excess, mean over the matrix (fraction); higher = more synergy
Assay [1] has as its system U-2-OS (Osteosarcoma). The gist of the method:
(§1)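 Bliss excess equals the observed combination effect minus the expected value EA + EB − EA·EB, where EA and EB are the effects of each agent alone. Combination Emax is the second-highest inhibition within the matrix. Inhibition was scaled from CellTiter-Glo 2.0 luminescence, with 0 set by vehicle wells and 1 by blank wells, after 72 hours of two-drug dosing of cells plated in 1536-well plates.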

The test system of assay [2] is ARH-77 (Non-Cancerous). An outline of the steps:
as §1

Assay [3] has as its system 8-MG-BA (Glioblastoma). The gist of the method: as §1
Assay [4] deals with PANC-10-05 (Pancreatic Carcinoma). The gist of the method:
as §1

Assay [5] has as its system NCI-H1693 (Lung Adenocarcinoma). An outline of the steps: as §1
Assay [6] deals with GI-ME-N (Neuroblastoma). An outline of the steps: as §1

With `COc1cccc(OCCCN)c1-c1cc(Nc2cnc(C#N)cn2)n[nH]1` [Prexasertib] + C[C@@H]1COCCN1C2=NC(=NC(=C2)C3(CC3)[S@](=N)(=O)C)C4=C5C=CNC5=NC=C4 [AZD6738] (first compound max 1 µM, 7x7, partner max 10 µM), the Bliss excess in assay [1] is -0.0426; in assay [2] it was 0.0006; in assay [3] it was -0.0239; in assay [4], 0.0258; in assay [5], 0.0816; in assay [6] it was 0.0681.

As for `COc1cccc(OCCCN)c1-c1cc(Nc2cnc(C#N)cn2)n[nH]1` [Prexasertib] + Cc1cc2ncnn2cc1Nc1ncc2c(n1)n(C1CCOCC1)c(=O)n2C [AZD7648] (first compound max 1 µM, 7x7, partner max 10 µM), the Bliss excess is -0.0223 in assay [1]; -0.0015 in assay [2]; -0.058 in assay [3]; -0.038 in assay [4]; 0.0337 in assay [5]; 0.107 in assay [6].

Consider `COc1cccc(OCCCN)c1-c1cc(Nc2cnc(C#N)cn2)n[nH]1` [Prexasertib] + O=C(c1cc(Cc2n[nH]c(=O)c3ccccc23)ccc1F)N1CCN(C(=O)C2CC2)CC1 [Olaparib] (first compound max 1 µM, 7x7, partner max 10 µM), for which the Bliss excess was -0.0478 in assay [1]; -0.0485 in assay [2]; 0.0262 in assay [3]; -0.0424 in assay [4]; -0.1 in assay [5]; -0.0649 in assay [6].

For `COc1cc2c(cc1OCCCCCOc1cc3c(cc1OC)C(=O)N1C=C(C)C[C@H]1C=N3)N=C[C@@H]1CC(C)=CN1C2=O` [SG3199] + O=C(c1cc(Cc2n[nH]c(=O)c3ccccc23)ccc1F)N1CCN(C(=O)C2CC2)CC1 [Olaparib] (first compound max 0.001 µM, 7x7, partner max 10 µM), the Bliss excess is -0.0203 in assay [1]; -0.0466 in assay [2]; 0.011 in assay [3]; -0.0598 in assay [4]; -0.0209 in assay [5]; -0.036 in assay [6].

With `CCc1c2c(nc3ccc(O)cc13)-c1cc3c(c(=O)n1C2)COC(=O)[C@]3(O)CC` [SN-38] + CN(C)CCCOc1ccc(-c2ccc3ncc4c(c3c2)n(C2CCOCC2)c(=O)n4C)cn1 [AZD0156] (first compound max 0.3 µM, 7x7, partner max 1 µM), the Bliss excess was -0.0193 in assay [1]; 0.0037 in assay [2]; 0.0392 in assay [3]; -0.0858 in assay [4]; -0.0099 in assay [5]; -0.0089 in assay [6].

Turning to `C[C@@H](c1ccc2nccn2c1)n1nnc2ncc(-c3cnn(C)c3)nc21` [Savolitinib] + CC1(C)CCC(CN2CCN(c3ccc(C(=O)NS(=O)(=O)c4ccc(NCC5CCOCC5)c([N+](=O)[O-])c4)c(Oc4cnc5[nH]ccc5c4)c3)CC2)=C(c2ccc(Cl)cc2)C1 [Venetoclax] (first compound max 1 µM, 7x7, partner max 1 µM), the Bliss excess in assay [1] is -0.0397; in assay [2], -0.0092; in assay [3] it was -0.025; in assay [4] it was -0.0986; in assay [5], -0.0639; in assay [6], -0.0925.

In the case of `C[C@@H](c1ccc2nccn2c1)n1nnc2ncc(-c3cnn(C)c3)nc21` [Savolitinib] + Cc1c2c(nn1C)CSCc1cc(n(C)n1)CSc1cc(c3ccccc3c1)OCCCc1c(C(=O)O)n(C)c3c-2c(Cl)ccc13 [AZD5991] (first compound max 1 µM, 7x7, partner max 1 µM), the Bliss excess in assay [1] is -0.0271; in assay [2] it was -0.0181; in assay [3], -0.0303; in assay [4] it was -0.0994; in assay [5], -0.0684; in assay [6], -0.0778.

Consider `Cn1cnc2c(F)c(Nc3ccc(Br)cc3Cl)c(C(=O)NOCCO)cc21` [Selumetinib] + C=CCn1c(=O)c2cnc(Nc3ccc(N4CCN(C)CC4)cc3)nc2n1-c1cccc(C(C)(C)O)n1 [AZD1775] (first compound max 10 µM, partner max 1 µM), for which the Bliss excess in assay [1] was -0.0328; in assay [2], -0.0518; in assay [3] it was -0.0543; in assay [4], -0.0898; in assay [5] it was -0.0092; in assay [6] it was -0.064.

As to `Cn1cnc2c(F)c(Nc3ccc(Br)cc3Cl)c(C(=O)NOCCO)cc21` [Selumetinib] + CC(C)n1c(=O)n(C)c2cnc3cc(F)c(-c4ccc(OCCCN5CCCCC5)nc4)cc3c21 [AZD1390] (first compound max 10 µM, 7x7, partner max 0.3 µM), the Bliss excess in assay [1] is -0.0464; in assay [2], -0.007; in assay [3], -0.018; in assay [4], -0.0783; in assay [5], -0.0814; in assay [6] it was -0.0399.

Regarding `Cn1cnc2c(F)c(Nc3ccc(Br)cc3Cl)c(C(=O)NOCCO)cc21` [Selumetinib] + CCN(CCO)CCCOc1ccc2c(Nc3cc(CC(=O)Nc4cccc(F)c4)[nH]n3)ncnc2c1 [AZD2811] (first compound max 10 µM, 7x7, partner max 1 µM), the Bliss excess in assay [1] was -0.0111; in assay [2], 0.0498; in assay [3], -0.0181; in assay [4] it was -0.0367; in assay [5], -0.0196; in assay [6], -0.0614.

On to `Cn1cnc2c(F)c(Nc3ccc(Br)cc3Cl)c(C(=O)NOCCO)cc21` [Selumetinib] + C[C@@H]1COCCN1C2=NC(=NC(=C2)C3(CC3)[S@](=N)(=O)C)C4=C5C=CNC5=NC=C4 [AZD6738] (first compound max 10 µM, 7x7, partner max 10 µM), for which the Bliss excess in assay [1] is -0.0443; in assay [2], 0.029; in assay [3], -0.0051; in assay [4] it was -0.07; in assay [5], -0.0017; in assay [6] it was -0.0028.

In the case of `CC(=O)Nc1cccc(-n2c(=O)n(C3CC3)c(=O)c3c(Nc4ccc(I)cc4F)n(C)c(=O)c(C)c32)c1` [Trametinib] + Cc1nc(-c2cn3c(n2)-c2ccc(-c4cnn(C(C)(C)C(N)=O)c4)cc2OCC3)n(C(C)C)n1 [Taselisib] (first compound max 1 µM, 7x7, partner max 10 µM), the Bliss excess in assay [1] was 0.122; in assay [2], 0.0785; in assay [3], 0.143; in assay [4], 0.0968; in assay [5], 0.0507; in assay [6] it was 0.0954.

Take `CC1(C)CCC(CN2CCN(c3ccc(C(=O)NS(=O)(=O)c4ccc(NCC5CCOCC5)c([N+](=O)[O-])c4)c(Oc4cnc5[nH]ccc5c4)c3)CC2)=C(c2ccc(Cl)cc2)C1` [Venetoclax] + C1CN(CCC1(C(=O)N[C@@H](CCO)C2=CC=C(C=C2)Cl)N)C3=NC=NC4=C3C=CN4 [Capivasertib] (first compound max 1 µM, 7x7, partner max 3 µM): the Bliss excess was -0.0414 in assay [1]; 0.054 in assay [2]; 0.0442 in assay [3]; -0.0656 in assay [4]; -0.0333 in assay [5]; -0.0685 in assay [6].

`CC1(C)CCC(CN2CCN(c3ccc(C(=O)NS(=O)(=O)c4ccc(NCC5CCOCC5)c([N+](=O)[O-])c4)c(Oc4cnc5[nH]ccc5c4)c3)CC2)=C(c2ccc(Cl)cc2)C1` [Venetoclax] + C=CCn1c(=O)c2cnc(Nc3ccc(N4CCN(C)CC4)cc3)nc2n1-c1cccc(C(C)(C)O)n1 [AZD1775] (first compound max 1 µM, partner max 1 µM): the Bliss excess in assay [1] is -0.018; in assay [2] it was 0.025; in assay [3], -0.0307; in assay [4] it was -0.0488; in assay [5], -0.0281; in assay [6], -0.0689.

On to `CC1(C)CCC(CN2CCN(c3ccc(C(=O)NS(=O)(=O)c4ccc(NCC5CCOCC5)c([N+](=O)[O-])c4)c(Oc4cnc5[nH]ccc5c4)c3)CC2)=C(c2ccc(Cl)cc2)C1` [Venetoclax] + CCN(CCO)CCCOc1ccc2c(Nc3cc(CC(=O)Nc4cccc(F)c4)[nH]n3)ncnc2c1 [AZD2811] (first compound max 1 µM, 7x7, partner max 1 µM), for which the Bliss excess in assay [1] is -0.0188; in assay [2] it was 0.198; in assay [3], 0.0065; in assay [4], -0.0454; in assay [5] it was 0.0169; in assay [6], -0.0202.

With `CC1(C)CCC(CN2CCN(c3ccc(C(=O)NS(=O)(=O)c4ccc(NCC5CCOCC5)c([N+](=O)[O-])c4)c(Oc4cnc5[nH]ccc5c4)c3)CC2)=C(c2ccc(Cl)cc2)C1` [Venetoclax] + CN(C)CCCOc1ccc(-c2ccc3ncc4c(c3c2)n(C2CCOCC2)c(=O)n4C)cn1 [AZD0156] (first compound max 1 µM, 7x7, partner max 1 µM), the Bliss excess in assay [1] is -0.0107; in assay [2] it was 0.0357; in assay [3], -0.0171; in assay [4], -0.079; in assay [5], -0.0123; in assay [6], -0.041.

Regarding `CC1(C)CCC(CN2CCN(c3ccc(C(=O)NS(=O)(=O)c4ccc(NCC5CCOCC5)c([N+](=O)[O-])c4)c(Oc4cnc5[nH]ccc5c4)c3)CC2)=C(c2ccc(Cl)cc2)C1` [Venetoclax] + COc1cc(Nc2ncc3c(n2)-c2ccc(Cl)cc2C(c2c(F)cccc2OC)=NC3)ccc1C(=O)O [Alisertib] (first compound max 1 µM, 7x7, partner max 10 µM), the Bliss excess is 0.0055 in assay [1]; 0.278 in assay [2]; 0.0038 in assay [3]; -0.0602 in assay [4]; -0.0862 in assay [5]; -0.094 in assay [6].

Turning to `CC1(C)CCC(CN2CCN(c3ccc(C(=O)NS(=O)(=O)c4ccc(NCC5CCOCC5)c([N+](=O)[O-])c4)c(Oc4cnc5[nH]ccc5c4)c3)CC2)=C(c2ccc(Cl)cc2)C1` [Venetoclax] + C[C@@H]1COCCN1C2=NC(=NC(=C2)C3(CC3)[S@](=N)(=O)C)C4=C5C=CNC5=NC=C4 [AZD6738] (first compound max 1 µM, 7x7, partner max 10 µM), the Bliss excess was -0.0469 in assay [1]; 0.0642 in assay [2]; -0.0603 in assay [3]; -0.113 in assay [4]; -0.0147 in assay [5]; -0.0353 in assay [6].
